Results: patent publication US20140329868A1, “METHODS FOR TREATING HYPERTENSION” (TAKEDA PHARMACEUTICALS U.S.A., INC., priority 2005, published 2014)

Legend:
[1] = system: subjects having a systolic BP≧160 mmHg or diastolic BP≧95 mmHg (elevated blood pressure); assay: Example 2: blood pressure change in subjects with elevated blood pressure, none taking angiotensin-converting enzyme inhibitors (two double-blind studies); assay type: in vivo, human
Experimental: None of these subjects were taking any angiotensin-coverting enzyme inhibitors, but might have been taking some other type of antihypertensive drug at the baseline (start) of the study. These 158 subjects were part of two (2) DB studies. One study was of 28 weeks in duration during which subjects received 80 mg, 120 mg or 240 mg QD of febuxostat or placebo or allopurinol 300 or 100 mg QD, depending on the subject's renal function. The second study was 52 weeks in duration during which subjects received 80 mg or 120 mg QD of febuxostat or allopurinol 300 mg QD. […] A total of 52 weeks of treatment was completed by 15 subjects in the febuxostat 80 mg QD group, 9 in the febuxostat 120 mg QD group and 17 in the allopurinol 300/100 mg QD group. Because of the shorter duration of one of the two DB studies, no subject in the placebo and febuxostat 240 mg QD groups was treated for 52 weeks.

[2] = Example 4: body weight, food and water intake, side effects in normal and OA-dosed rats; assay type: in vivo, Sprague-Dawley rats
Experimental: Materials and Methods. To produce hyperuricemia, rats received OA (Sigma, St Louis Mo., USA) 750 mg/kg body weight daily by gastric gavage. To investigate the treatment effect of febuxostat (also referred to herein as “Fx”), the drug was administered in drinking water at 50 mg/L (approximately 5-6 mg/kg/day) four weeks after OA dosing while the respective controls received 5.84 mg/L of NaCl in drinking water (to maintain a salt concentration equivalent to the Febuxostat-containing water). The following four groups (n=10-11) were included in the study: Group 1, normal control rats which received no treatment for eight weeks; Group 2, Normal+Febuxostat rats which received no treatment for four weeks and then were treated with febuxostat for four weeks from Weeks 5 to 8; Group 3, OA rats which received OA for eight weeks; and Group 4, OA+Febuxostat rats which received OA for eight weeks and febuxostat for four weeks from Weeks 5 to 8. Body weight, food and water intakes were measured daily. Systolic blood pressure, obtained in conscious rats by a tail cuff sphygmomanometer, and plasma uric acid were measured in all animals at baseline and at the end of four and eight weeks. A renal micropuncture procedure along with systemic arterial blood pressure monitoring under pentobarbital anesthesia were performed at the end of eight weeks followed by morphologic evaluation of the renal preglomerular microvasculature.
Evaluation. Food and water intake were determined daily. Systolic blood pressure (hereinafter “SBP”) was measured in conscious animals by a tail cuff sphygmomanometer using an automated system (XBP-100, Kent Scientific Co, USA). All animals were preconditioned for blood pressure measurements one week before each experiment. Plasma UA, insulin and triglycerides were quantified using commercial kits (Diagnostic Chemicals Ltd, USA; Crystalchem, USA and Spinreact, Spain, respectively).
Statistical Analysis. Values were expressed as mean±standard error of the mean (hereinafter “SEM”). In the study, values from the respective four treatment groups were analyzed by one-way analysis of variance (hereinafter “ANOVA”). When the ANOVA p value was <0.05, the following comparisons were made using Bonferroni multiple comparison test: Normal Control vs. Normal+Fx, Normal Control vs. OA, Normal Control vs. OA+Fx and OA vs. OA+Fx. Pair wise comparisons were performed using contrast within the framework of the statistical model.

[3] = 80 mg QD, after 4 weeks of treatment
[4] = 80 mg QD, after 28 weeks of treatment
[5] = 80 mg QD, after 52 weeks of treatment
[6] = 120 mg QD, after 4 weeks of treatment
[7] = 120 mg QD, after 28 weeks of treatment
[8] = 120 mg QD, after 52 weeks of treatment
[9] = 240 mg QD, after 4 weeks of treatment
[10] = 240 mg QD, after 28 weeks of treatment
[11] = Normal + Fx rats, End of Week 4 (before Fx)
[12] = Normal + Fx rats, End of Week 8
[13] = Normal + Fx rats, Week 1 (before Fx)
[14] = Normal + Fx rats, Week 4 (before Fx)
[15] = OA + Fx rats, End of Week 4 (before Fx)
[16] = OA + Fx rats, Week 1 (before Fx)
[17] = OA + Fx rats, Week 4 (before Fx)

Cc1nc(-c2ccc(OCC(C)C)c(C#N)c2)sc1C(=O)O [febuxostat, 2-[3-cyano-4-(2-methylpropoxy)phenyl]-4-methylthiazole-5-carboxylic acid]
mean change from baseline for diastolic BP [1, 3]: −4.7 mmHg | mean change from baseline for mean arterial BP [1, 3]: −5.5 mmHg | mean change from baseline for systolic BP [1, 3]: −7.2 mmHg | mean change from baseline for diastolic BP [1, 4]: −8.7 mmHg | mean change from baseline for mean arterial BP [1, 4]: −9.2 mmHg | mean change from baseline for systolic BP [1, 4]: −10.4 mmHg | mean change from baseline for diastolic BP [1, 5]: −8.1 mmHg | mean change from baseline for mean arterial BP [1, 5]: −8.5 mmHg | mean change from baseline for systolic BP [1, 5]: −9.5 mmHg | mean change from baseline for diastolic BP [1, 6]: −7.2 mmHg | mean change from baseline for mean arterial BP [1, 6]: −7.6 mmHg | mean change from baseline for systolic BP [1, 6]: −8.3 mmHg | mean change from baseline for diastolic BP [1, 7]: −7.5 mmHg | mean change from baseline for mean arterial BP [1, 7]: −8.7 mmHg | mean change from baseline for systolic BP [1, 7]: −11.0 mmHg | mean change from baseline for diastolic BP [1, 8]: −7.2 mmHg | mean change from baseline for mean arterial BP [1, 8]: −11.3 mmHg | mean change from baseline for systolic BP [1, 8]: −19.4 mmHg | mean change from baseline for diastolic BP [1, 9]: −9.3 mmHg | mean change from baseline for mean arterial BP [1, 9]: −12.5 mmHg | mean change from baseline for systolic BP [1, 9]: −18.9 mmHg | mean change from baseline for diastolic BP [1, 10]: −10.0 mmHg | mean change from baseline for mean arterial BP [1, 10]: −12.9 mmHg | mean change from baseline for systolic BP [1, 10]: −18.8 mmHg | BW ([2]; Normal + Fx rats, Baseline (Fx 50 mg/L in drinking water Weeks 5 to 8), mean ± SEM): 319.9 ± 3.0 gr | % BW gain from baseline [2, 11]: 11.9 ± 1.8% | BW [2, 11]: 359.3 ± 7.2 gr | % BW gain from Week 4 [2, 12]: 6.6 ± 0.8 % | % BW gain from baseline [2, 12]: 18.7 ± 1.8% | BW [2, 12]: 377.7 ± 7.5 gr | Daily Food intake [2, 13]: 18.3 ± 0.6 gr | Daily Water intake [2, 13]: 34.5 ± 2.4 mL | Daily Food intake [2, 14]: 16.0 ± 0.7 gr | Daily Water intake [2, 14]: 32.3 ± 1.4 mL | Daily Food intake ([2]; Normal + Fx rats, Week 8): 18.0 ± 0.4 gr | Daily Water intake ([2]; Normal + Fx rats, Week 8): 39.7 ± 1.7 mL | BW ([2]; OA + Fx rats, Baseline (Fx 50 mg/L in drinking water Weeks 5 to 8), mean ± SEM): 323.6 ± 3.2 gr | % BW gain from baseline [2, 15]: 6.7 ± 1.7% | BW [2, 15]: 345.3 ± 5.7 gr | % BW gain from Week 4 ([2]; OA + Fx rats, End of Week 8): 5.2 ± 0.7 % | % BW gain from baseline ([2]; OA + Fx rats, End of Week 8): 12.3 ± 1.9% | BW ([2]; OA + Fx rats, End of Week 8): 363.2 ± 5.7 gr | Daily Food intake [2, 16]: 15.1 ± 0.7 gr | Daily Water intake [2, 16]: 36.6 ± 2.2 mL | Daily Food intake [2, 17]: 17.4 ± 0.7 gr | Daily Water intake [2, 17]: 33.8 ± 2.4 mL | Daily Food intake ([2]; OA + Fx rats, Week 8): 18.6 ± 0.4 gr | Daily Water intake ([2]; OA + Fx rats, Week 8): 42.6 ± 2.3 mL | behaviour and side effects ([2]; all rats, eight-week study): no side effects were observed
